Results as given in ChEMBL document CHEMBL5653631, “A Potent and Selective ULK1 Inhibitor Suppresses Autophagy and Sensitizes Cancer Cells to Nutrient Stress” (iScience, 2018).
One block for each molecule: values may come before it.

Assays:
[1] = molecular target: Cyclin-dependent kinase-like 1 (Homo sapiens) (UniProt Q00532); assay: Inhibition of human recombinant CDKL1 at 500 nM in presence of ATP by radiometric assay relative to control
[2] = molecular target: Serine/threonine-protein kinase SBK1 (Homo sapiens) (UniProt Q52WX2); assay: Inhibition of human recombinant SBK1 at 500 nM related to control ULK1
[3] = molecular target: T1, cGMP-dependent protein kinase 1 (Homo sapiens) (UniProt Q13976); assay: Inhibition of human recombinant PKG1 at 500 nM in presence of ATP by radiometric assay relative to control
T1 sequence (whole entry): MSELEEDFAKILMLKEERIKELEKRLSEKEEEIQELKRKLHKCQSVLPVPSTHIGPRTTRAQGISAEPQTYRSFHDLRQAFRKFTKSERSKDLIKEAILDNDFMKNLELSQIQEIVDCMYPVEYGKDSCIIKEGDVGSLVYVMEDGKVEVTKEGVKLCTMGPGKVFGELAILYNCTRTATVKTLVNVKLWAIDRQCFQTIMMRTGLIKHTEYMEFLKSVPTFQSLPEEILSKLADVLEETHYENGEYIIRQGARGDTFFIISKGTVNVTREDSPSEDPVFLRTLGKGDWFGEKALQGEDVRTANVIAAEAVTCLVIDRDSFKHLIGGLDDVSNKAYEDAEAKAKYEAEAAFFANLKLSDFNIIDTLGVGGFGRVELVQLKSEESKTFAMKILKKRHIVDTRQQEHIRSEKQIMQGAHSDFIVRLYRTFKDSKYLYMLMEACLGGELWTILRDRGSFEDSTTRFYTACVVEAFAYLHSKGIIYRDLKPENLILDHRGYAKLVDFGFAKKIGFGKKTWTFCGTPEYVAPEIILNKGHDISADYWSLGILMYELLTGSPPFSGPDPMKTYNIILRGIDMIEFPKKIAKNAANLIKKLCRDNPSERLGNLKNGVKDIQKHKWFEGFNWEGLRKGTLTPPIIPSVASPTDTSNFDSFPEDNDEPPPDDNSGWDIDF

[4] = molecular target: Serine/threonine-protein kinase Chk2 (Homo sapiens) (UniProt O96017); assay: Inhibition of human recombinant CHK2 at 500 nM in presence of ATP by radiometric assay relative to control
[5] = molecular target: Mitogen-activated protein kinase kinase kinase kinase 1 (Homo sapiens) (UniProt Q92918); assay: Inhibition of human recombinant HPK1 at 15 nM related to control ULK1
[6] = molecular target: T2, Dual specificity protein kinase TTK (Homo sapiens) (UniProt P33981); assay: Inhibition of human recombinant TTK at 40 nM related to control ULK1
T2 sequence (whole entry): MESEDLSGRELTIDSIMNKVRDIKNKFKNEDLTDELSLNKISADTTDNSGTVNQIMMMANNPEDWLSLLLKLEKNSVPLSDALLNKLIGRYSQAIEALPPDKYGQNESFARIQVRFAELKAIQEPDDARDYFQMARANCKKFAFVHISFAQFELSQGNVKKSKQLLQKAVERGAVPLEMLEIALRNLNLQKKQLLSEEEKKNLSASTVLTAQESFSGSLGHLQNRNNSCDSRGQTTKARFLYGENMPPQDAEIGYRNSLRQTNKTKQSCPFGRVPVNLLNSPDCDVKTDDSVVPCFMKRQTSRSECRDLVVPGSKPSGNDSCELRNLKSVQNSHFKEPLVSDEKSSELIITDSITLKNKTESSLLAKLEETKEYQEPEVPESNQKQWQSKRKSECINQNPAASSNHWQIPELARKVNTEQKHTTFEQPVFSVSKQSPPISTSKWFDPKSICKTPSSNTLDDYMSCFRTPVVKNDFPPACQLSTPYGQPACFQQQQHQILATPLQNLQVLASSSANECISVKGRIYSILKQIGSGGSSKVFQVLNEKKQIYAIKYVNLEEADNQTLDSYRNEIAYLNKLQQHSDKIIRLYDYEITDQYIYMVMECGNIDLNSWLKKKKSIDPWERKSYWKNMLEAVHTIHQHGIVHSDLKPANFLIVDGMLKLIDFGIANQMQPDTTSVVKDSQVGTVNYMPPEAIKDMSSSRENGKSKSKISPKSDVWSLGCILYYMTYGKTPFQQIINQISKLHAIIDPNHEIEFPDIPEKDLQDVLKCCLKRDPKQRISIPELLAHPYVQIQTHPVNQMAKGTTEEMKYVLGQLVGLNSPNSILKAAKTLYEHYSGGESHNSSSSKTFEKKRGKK

[7] = molecular target: Tau-tubulin kinase 1 (Homo sapiens) (UniProt Q5TCY1); assay: Inhibition of human recombinant TTBK1 at 40 nM in presence of ATP by radiometric assay relative to control
[8] = molecular target: Mitogen-activated protein kinase kinase kinase kinase 4 (Homo sapiens) (UniProt O95819); assay: Inhibition of human recombinant HGK at 40 nM in presence of ATP by radiometric assay relative to control
[9] = molecular target: Misshapen-like kinase 1 (Homo sapiens) (UniProt Q8N4C8); assay: Inhibition of human recombinant MINK at 40 nM related to control ULK1
[10] = molecular target: T3, Serine/threonine-protein kinase haspin (Homo sapiens) (UniProt Q8TF76); assay: Inhibition of human recombinant Haspin at 40 nM related to control ULK1
T3 sequence (whole entry): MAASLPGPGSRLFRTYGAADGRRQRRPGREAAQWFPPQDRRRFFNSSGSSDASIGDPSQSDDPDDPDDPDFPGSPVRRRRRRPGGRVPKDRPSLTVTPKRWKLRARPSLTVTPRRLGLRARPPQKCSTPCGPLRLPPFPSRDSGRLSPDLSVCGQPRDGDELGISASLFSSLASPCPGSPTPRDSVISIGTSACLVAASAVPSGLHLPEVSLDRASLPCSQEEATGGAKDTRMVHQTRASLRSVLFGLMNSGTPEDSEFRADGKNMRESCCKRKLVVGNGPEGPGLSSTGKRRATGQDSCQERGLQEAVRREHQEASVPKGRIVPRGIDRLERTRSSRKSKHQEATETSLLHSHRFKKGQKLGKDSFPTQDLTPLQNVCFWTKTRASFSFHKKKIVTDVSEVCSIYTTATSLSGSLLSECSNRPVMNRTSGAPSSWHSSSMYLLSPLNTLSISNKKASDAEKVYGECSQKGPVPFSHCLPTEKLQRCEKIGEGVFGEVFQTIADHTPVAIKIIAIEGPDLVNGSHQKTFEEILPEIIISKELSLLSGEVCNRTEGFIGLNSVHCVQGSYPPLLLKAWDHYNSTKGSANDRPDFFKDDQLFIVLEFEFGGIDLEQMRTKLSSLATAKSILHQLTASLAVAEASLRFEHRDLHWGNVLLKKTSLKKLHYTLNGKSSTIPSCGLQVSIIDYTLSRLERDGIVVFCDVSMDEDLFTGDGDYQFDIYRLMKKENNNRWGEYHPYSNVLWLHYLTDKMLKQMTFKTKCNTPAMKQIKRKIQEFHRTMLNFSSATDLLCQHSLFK

[11] = molecular target: SRSF protein kinase 3 (Homo sapiens) (UniProt Q9UPE1); assay: Inhibition of human recombinant MSSK1 at 40 nM in presence of ATP by radiometric assay relative to control
SRSF protein kinase 3 (Homo sapiens), sequence (Q9UPE1 whole entry): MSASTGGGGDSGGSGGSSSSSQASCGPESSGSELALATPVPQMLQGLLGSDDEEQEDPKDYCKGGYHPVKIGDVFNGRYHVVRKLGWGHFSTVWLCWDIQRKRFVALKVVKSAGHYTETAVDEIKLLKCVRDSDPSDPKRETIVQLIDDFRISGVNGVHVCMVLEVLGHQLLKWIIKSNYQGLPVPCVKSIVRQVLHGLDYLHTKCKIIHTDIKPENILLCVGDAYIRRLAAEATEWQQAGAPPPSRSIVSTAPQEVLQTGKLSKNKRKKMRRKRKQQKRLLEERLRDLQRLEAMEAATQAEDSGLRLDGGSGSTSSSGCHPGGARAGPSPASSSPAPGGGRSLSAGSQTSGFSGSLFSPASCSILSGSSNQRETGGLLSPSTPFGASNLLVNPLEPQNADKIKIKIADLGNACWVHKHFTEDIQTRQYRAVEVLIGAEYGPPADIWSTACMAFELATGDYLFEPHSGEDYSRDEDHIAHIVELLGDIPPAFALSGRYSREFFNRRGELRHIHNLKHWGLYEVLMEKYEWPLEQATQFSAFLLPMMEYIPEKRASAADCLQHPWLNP

Serine/threonine-protein kinase Chk2 (Homo sapiens), sequence (O96017 whole entry): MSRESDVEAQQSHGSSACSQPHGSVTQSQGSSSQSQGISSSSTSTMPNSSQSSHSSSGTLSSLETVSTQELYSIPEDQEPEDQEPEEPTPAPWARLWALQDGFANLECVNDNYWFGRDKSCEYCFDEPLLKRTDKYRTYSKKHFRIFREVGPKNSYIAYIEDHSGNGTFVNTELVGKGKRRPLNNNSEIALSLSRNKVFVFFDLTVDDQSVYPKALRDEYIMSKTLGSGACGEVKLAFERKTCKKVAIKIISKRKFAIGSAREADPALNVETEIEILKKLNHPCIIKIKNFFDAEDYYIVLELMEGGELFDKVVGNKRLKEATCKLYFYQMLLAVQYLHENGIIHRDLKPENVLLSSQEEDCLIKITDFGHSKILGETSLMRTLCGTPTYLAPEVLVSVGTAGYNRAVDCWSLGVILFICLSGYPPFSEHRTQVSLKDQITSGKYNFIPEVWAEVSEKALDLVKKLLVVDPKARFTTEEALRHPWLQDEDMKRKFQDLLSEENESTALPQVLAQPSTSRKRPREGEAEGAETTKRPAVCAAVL
Mitogen-activated protein kinase kinase kinase kinase 1 (Homo sapiens), sequence (Q92918 whole entry, looked up): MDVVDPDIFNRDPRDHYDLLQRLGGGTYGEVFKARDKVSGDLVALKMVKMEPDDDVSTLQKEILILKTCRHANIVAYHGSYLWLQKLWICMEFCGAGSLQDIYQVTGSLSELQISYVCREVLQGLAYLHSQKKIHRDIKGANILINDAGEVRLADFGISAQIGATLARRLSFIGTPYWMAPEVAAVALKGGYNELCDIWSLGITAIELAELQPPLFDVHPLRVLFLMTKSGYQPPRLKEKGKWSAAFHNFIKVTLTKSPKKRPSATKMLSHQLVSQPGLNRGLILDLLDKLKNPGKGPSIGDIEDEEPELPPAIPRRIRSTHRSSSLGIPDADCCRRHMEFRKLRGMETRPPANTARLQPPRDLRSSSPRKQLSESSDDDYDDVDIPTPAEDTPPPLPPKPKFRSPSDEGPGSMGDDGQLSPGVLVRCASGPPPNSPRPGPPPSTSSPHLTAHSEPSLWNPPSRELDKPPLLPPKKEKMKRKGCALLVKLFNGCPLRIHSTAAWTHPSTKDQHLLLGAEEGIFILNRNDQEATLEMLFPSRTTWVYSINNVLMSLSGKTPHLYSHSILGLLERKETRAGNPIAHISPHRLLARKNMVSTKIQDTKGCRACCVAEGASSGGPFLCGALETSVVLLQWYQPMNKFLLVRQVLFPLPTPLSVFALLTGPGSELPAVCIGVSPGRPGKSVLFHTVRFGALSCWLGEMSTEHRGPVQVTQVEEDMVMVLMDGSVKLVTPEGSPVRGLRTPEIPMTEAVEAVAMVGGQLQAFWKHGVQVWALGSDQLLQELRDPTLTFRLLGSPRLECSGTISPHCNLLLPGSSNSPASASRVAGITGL
Mitogen-activated protein kinase kinase kinase kinase 4 (Homo sapiens), sequence (O95819 2-1239 limits assumed): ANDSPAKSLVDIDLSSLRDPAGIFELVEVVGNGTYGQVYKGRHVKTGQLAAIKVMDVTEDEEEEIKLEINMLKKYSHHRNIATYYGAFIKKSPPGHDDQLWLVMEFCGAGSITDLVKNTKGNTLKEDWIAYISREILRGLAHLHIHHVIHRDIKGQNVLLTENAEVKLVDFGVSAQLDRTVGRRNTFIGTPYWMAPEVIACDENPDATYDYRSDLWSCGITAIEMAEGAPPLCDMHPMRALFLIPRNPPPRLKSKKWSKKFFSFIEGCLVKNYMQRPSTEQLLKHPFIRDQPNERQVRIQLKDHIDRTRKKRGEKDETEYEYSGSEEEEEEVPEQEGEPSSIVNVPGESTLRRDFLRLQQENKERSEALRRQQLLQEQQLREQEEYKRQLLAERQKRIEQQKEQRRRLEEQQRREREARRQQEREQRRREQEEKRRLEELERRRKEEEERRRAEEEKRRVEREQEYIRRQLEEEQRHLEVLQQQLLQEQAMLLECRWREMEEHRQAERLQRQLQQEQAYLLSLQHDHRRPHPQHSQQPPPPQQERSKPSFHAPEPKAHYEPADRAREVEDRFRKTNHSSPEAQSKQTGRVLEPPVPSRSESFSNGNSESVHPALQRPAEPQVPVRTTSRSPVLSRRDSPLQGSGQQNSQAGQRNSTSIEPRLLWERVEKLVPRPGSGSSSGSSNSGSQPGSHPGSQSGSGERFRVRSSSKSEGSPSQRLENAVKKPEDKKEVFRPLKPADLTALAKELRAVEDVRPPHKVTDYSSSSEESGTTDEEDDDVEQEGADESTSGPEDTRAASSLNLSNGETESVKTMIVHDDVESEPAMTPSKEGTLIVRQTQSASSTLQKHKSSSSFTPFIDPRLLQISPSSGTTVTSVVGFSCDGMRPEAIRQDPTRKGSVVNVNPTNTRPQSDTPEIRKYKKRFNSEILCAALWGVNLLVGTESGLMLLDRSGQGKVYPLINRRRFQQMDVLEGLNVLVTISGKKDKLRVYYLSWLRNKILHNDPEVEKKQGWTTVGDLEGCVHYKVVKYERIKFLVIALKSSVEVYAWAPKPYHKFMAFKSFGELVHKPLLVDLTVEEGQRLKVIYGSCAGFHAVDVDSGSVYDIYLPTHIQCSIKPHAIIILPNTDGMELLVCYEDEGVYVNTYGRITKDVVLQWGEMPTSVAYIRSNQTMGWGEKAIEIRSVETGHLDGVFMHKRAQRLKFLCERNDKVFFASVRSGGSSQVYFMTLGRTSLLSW
Tau-tubulin kinase 1 (Homo sapiens), sequence (Q5TCY1 whole entry): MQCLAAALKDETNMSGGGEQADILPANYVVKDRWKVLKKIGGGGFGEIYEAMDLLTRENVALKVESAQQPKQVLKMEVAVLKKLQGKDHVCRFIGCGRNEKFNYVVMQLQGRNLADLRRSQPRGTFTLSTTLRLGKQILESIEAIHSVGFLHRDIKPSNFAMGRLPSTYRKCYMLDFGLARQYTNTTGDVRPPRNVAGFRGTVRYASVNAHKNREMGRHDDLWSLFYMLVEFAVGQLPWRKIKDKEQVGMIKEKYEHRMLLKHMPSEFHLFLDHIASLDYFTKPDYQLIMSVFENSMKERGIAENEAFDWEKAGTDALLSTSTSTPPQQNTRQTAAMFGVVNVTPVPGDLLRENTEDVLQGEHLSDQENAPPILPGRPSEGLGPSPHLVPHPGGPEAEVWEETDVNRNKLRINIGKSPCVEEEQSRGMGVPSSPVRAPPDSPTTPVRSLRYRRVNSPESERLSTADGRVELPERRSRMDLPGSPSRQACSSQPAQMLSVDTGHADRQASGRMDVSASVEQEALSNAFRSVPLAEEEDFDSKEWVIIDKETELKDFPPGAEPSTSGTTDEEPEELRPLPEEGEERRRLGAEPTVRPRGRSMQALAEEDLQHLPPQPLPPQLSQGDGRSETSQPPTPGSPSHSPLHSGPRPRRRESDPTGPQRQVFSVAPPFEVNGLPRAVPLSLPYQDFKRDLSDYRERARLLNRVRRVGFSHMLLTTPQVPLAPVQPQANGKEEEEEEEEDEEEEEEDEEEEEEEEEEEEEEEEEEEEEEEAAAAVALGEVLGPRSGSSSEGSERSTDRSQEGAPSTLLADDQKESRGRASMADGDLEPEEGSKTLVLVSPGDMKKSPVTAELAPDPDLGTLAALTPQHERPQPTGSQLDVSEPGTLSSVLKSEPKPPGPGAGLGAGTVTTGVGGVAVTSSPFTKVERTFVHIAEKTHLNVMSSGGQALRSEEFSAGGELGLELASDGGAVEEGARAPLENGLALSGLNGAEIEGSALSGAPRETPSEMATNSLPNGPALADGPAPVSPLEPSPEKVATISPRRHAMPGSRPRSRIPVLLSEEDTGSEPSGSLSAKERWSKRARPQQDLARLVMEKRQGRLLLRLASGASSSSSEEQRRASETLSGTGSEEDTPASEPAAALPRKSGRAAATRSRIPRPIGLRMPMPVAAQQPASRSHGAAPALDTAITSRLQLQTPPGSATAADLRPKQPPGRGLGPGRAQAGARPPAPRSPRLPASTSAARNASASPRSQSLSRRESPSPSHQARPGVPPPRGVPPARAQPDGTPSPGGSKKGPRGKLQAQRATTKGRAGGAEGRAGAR
Cyclin-dependent kinase-like 1 (Homo sapiens), sequence (Q00532 whole entry): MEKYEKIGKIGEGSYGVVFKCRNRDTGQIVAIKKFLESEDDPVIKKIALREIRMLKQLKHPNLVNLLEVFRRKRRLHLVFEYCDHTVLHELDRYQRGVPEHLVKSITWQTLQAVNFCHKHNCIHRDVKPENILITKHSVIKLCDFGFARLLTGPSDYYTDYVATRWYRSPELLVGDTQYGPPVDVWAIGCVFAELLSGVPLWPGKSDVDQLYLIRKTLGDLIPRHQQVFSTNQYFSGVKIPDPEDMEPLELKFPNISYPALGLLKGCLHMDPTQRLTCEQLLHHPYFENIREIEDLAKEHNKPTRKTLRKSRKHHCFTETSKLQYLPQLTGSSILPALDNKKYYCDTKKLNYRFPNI

- inhibition [1]: 0%
- fold change (FC) [2]: 0.68
- inhibition [3]: 4%
- inhibition [4]: 0%
SMILES: CNC(=O)c1ccccc1Oc1nc(Nc2cc(OC)c(OC)c(OC)c2)ncc1Br

- fold change (FC) [5]: 0
SMILES: CC(C)[C@H](NC(=O)c1cc(-c2cnn3cc(-c4ccc(OCCN5CCCCC5)cc4)cnc23)cs1)C(F)(F)F

- fold change (FC) [6]: 0.45
- inhibition [7]: 0%
- inhibition [8]: 0%
- fold change (FC) [9]: 0.1
- fold change (FC) [10]: 0.01
- inhibition [11]: 13%
SMILES: O=C(N[C@@H](C1CC1)C(F)(F)F)c1cc(-c2cnn3cc(-c4ccc(F)cc4)cnc23)cs1
